Values quoted from earlier work, collected in patent publication US20070042049A1, “Nanoparticulate benidipine compositions” (Elan Pharma International, Limited, priority 2005, published 2007).
Structures can show the parent of a compound that is named as a salt. Where two headings read alike, the source gives them in different places.

Compound: COC(=O)C1=C(C)NC(C)=C(C(=O)O[C@@H]2CCCN(Cc3ccccc3)C2)C1c1cccc([N+](=O)[O-])c1 (stereo in doubt) [Benidipine hydrochloride]
- solubility (in acetic anhydride): slightly soluble
- solubility (in dimethylformamide): freely soluble
- solubility (in ethanol): soluble
- solubility (in formic acid): very soluble
- solubility (in methanol): soluble
- solubility (in water): relatively insoluble
